The text below walks through data of publication PMC2993163 (Structure (London, England : 1993), 2009).

In the assay the target is T1, BdRppH (Bdellovibrio bacteriovorus, UniProt Q6MPX4).
T1 sequence (Q6MPX4 1-153): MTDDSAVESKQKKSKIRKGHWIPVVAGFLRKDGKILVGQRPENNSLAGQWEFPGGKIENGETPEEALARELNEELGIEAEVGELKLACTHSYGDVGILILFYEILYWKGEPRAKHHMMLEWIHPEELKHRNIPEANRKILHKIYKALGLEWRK
Description: X-ray crystal structure. The assay is classed as binding. The note with it: deposited complex; not described in text.

For `Nc1nc2c(ncn2[C@H]2C[C@H](O)[C@@H](COP(=O)(O)OP(=O)(O)OP(=O)(O)O)O2)c(=O)[nH]1` [dGTP], the X-ray crystal structure result was “RNA pyrophosphohydrolase in complex with dGTP”.
